Test results taken from patent publication US8586611B2 (priority 2005, dated 2013).

Key:
Assay type in all cases: in vivo
Phytophthora infestans [1] = assay: whole plant or invertebrate; settings: tomato late blight
Plasmopara viticola = assay: Test B: grape downy mildew, spray 24 h after inoculation (disease rating, 100 = 100% disease control)
In short: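 Grape seedlings were inoculated with Plasmopara viticola and held 24 h saturated at 20 °C, then sprayed to run-off with compound suspension (acetone/water with 250 ppm Trem 014; 200 ppm ≈ 500 g/ha). After 5 days at 20 °C and 24 h saturation, disease was rated from 0 to 100% control versus untreated.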

Phytophthora infestans [2] = assay: whole plant or invertebrate; settings: tomato late blight; remark: listed apart in the source
[3] = tested on: Erysiphe graminis f. sp. tritici; assay: Test E: wheat powdery mildew, spray the day before inoculation (disease rating, 100 = 100% disease control)
In short: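 Wheat seedlings sprayed to run-off with compound suspended in acetone/water 50/50 with 250 ppm Trem 014 (200 ppm equivalent to 500 g/ha); inoculated next day with Erysiphe graminis f. sp. tritici spore dust. Kept 7 days at 20° C, then rated 0–100% disease control versus controls.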

[4] = spray 17 h after inoculation, compounds without asterisk (not 40 or 10 ppm)
[5] = spray 24 h after inoculation, compounds without asterisk (not 40 or 10 ppm)
[6] = spray the day before inoculation, compounds without asterisk (not 40 or 10 ppm)
[7] = sprayed 17 h after inoculation, unmarked compounds (no asterisk, not 40 or 10 ppm)
[8] = sprayed 24 h after inoculation, unmarked compounds (no asterisk, not 40 or 10 ppm)
[9] = sprayed the day before inoculation, unmarked compounds (no asterisk, not 40 or 10 ppm)
[10] = sprayed the day before inoculation, 7 days at 20° C., unmarked compounds (no asterisk, not 40 or 10 ppm)

| SMILES | Test D disease rating (100 = 100% disease control, 0 = no disease control) (Phytophthora infestans [1]; [4]) | Test B disease rating (100 = 100% disease control, 0 = no disease control) (Plasmopara viticola; [5]) | Test C disease rating (100 = 100% disease control, 0 = no disease control) (Phytophthora infestans [2]; [6]) | Test E disease rating (100 = 100% disease control, 0 = no disease control) [3, 6] | other results |
| --- | --- | --- | --- | --- | --- |
| COc1ccccc1C(C)N(C)C(=O)c1csc(C2CCN(C(=O)Cn3nc(C(F)(F)F)cc3C)CC2)n1 (centres unmarked) [compound 255] |  |  |  |  | Test D disease rating (100 = 100% disease control, 0 = no disease control) (Phytophthora infestans [1]; sprayed 17 h after inoculation, tested at 10 ppm (**)): 0; Test B disease rating (100 = 100% disease control, 0 = no disease control) (Plasmopara viticola; sprayed 24 h after inoculation, tested at 10 ppm (**)): 25; Test C disease rating (100 = 100% disease control, 0 = no disease control) (Phytophthora infestans [2]; sprayed the day before inoculation, tested at 10 ppm (**)): 9; Test E disease rating (100 = 100% disease control, 0 = no disease control) ([3]; sprayed the day before inoculation, 7 days at 20° C., tested at 10 ppm (**)): 0 |
| Cc1ccc(C)c(CC(=O)N2CCC(c3nc(C(=O)N(C)C4CCOc5ccccc54)cs3)CC2)c1 (centres unmarked) [compound 137] | 93% | 100% | 51% | 0% |  |
| Cc1cc(C(F)(F)F)nn1CC(=O)N1CCC(n2cc(C(=O)N(C)[C@@H]3CCCc4ccccc43)nn2)CC1 [compound 217] | 40% | 52% | 99% | 0% |  |
| Cc1ccc(C)c(CC(=O)N2CCC(c3nc(C(=O)N(C)C4CCCCc5ccccc54)cs3)CC2)c1 (centres unmarked) [compound 129] | 57% | 0% | 50% | 0% |  |
| Cc1cc(C(F)(F)F)nn1CC(=O)N1CCN(c2nc(C(=O)N(C)[C@@H]3CCCc4ccccc43)cs2)CC1C (some centres unmarked) [compound 293] |  |  |  |  | Test D disease rating (100 = 100% disease control, 0 = no disease control) (Phytophthora infestans [1]; [7]): 99; Test B disease rating (100 = 100% disease control, 0 = no disease control) (Plasmopara viticola; [8]): 100; Test C disease rating (100 = 100% disease control, 0 = no disease control) (Phytophthora infestans [2]; [9]): 100; Test E disease rating (100 = 100% disease control, 0 = no disease control) [3, 10]: 0 |
| COC(=O)Cc1ccccc1CC(=O)N1CCC(c2nc(C(=O)N(C)[C@H](C)c3ccccc3)cs2)CC1 [compound 90] | 9% | 17% | 26% | 0% |  |
| Cc1cc(C(F)(F)F)nn1CC(=O)N1CCC(c2nc(C(=S)N(C)[C@@H]3CCCc4ccccc43)cs2)CC1 [Compound 289, N-methyl-2-[1-[[5-methyl-3-(trifluoromethyl)-1H-pyrazol-1-yl]acetyl]-4-piperidinyl]-N-[(1R)-1,2,3,4-tetrahydro-1-naphthalenyl]-4-thiazolecarbothioamide] |  |  |  |  | Test D disease rating (100 = 100% disease control, 0 = no disease control) (Phytophthora infestans [1]; sprayed 17 h after inoculation, tested at 40 ppm (*)): 99; Test B disease rating (100 = 100% disease control, 0 = no disease control) (Plasmopara viticola; sprayed 24 h after inoculation, tested at 40 ppm (*)): 100; Test C disease rating (100 = 100% disease control, 0 = no disease control) (Phytophthora infestans [2]; sprayed the day before inoculation, tested at 40 ppm (*)): 100; Test E disease rating (100 = 100% disease control, 0 = no disease control) ([3]; sprayed the day before inoculation, 7 days at 20° C., tested at 40 ppm (*)): 65 |
| Cc1ccc(C)c(CC(=O)N2CCC(c3nc(C(=O)N(C)[C@H]4CCCc5ccccc54)cs3)CC2)c1 [compound 133] | 79% | 77% | 53% | 0% |  |
| Cc1cc(C(F)(F)F)nn1CC(=O)N1CCC(c2nc(C(=O)N(C)[C@H](C(N)=O)c3ccccc3)cs2)CC1 [compound 247] | 17% | 0% | 90% | 0% |  |
| C[C@@H](NC(=O)c1csc(C2CCN(C(=O)Cc3cccc(Br)c3)CC2)n1)c1ccc(Cl)cc1 [compound 280] |  |  |  |  | Test D disease rating (100 = 100% disease control, 0 = no disease control) (Phytophthora infestans [1]; [7]): 0; Test B disease rating (100 = 100% disease control, 0 = no disease control) (Plasmopara viticola; [8]): 0; Test C disease rating (100 = 100% disease control, 0 = no disease control) (Phytophthora infestans [2]; [9]): 24; Test E disease rating (100 = 100% disease control, 0 = no disease control) [3, 10]: 0 |
| Cc1cc(C(F)(F)F)nn1CC(=O)N1CCC(c2nc(C(=O)N3CCCC(C)(C)C3)cs2)CC1 [compound 313] |  |  |  |  | Test D disease rating (100 = 100% disease control, 0 = no disease control) (Phytophthora infestans [1]; [7]): 92; Test B disease rating (100 = 100% disease control, 0 = no disease control) (Plasmopara viticola; [8]): 98; Test C disease rating (100 = 100% disease control, 0 = no disease control) (Phytophthora infestans [2]; [9]): 99; Test E disease rating (100 = 100% disease control, 0 = no disease control) [3, 10]: 0 |
